From PubChem BioAssay AID248 (DTP/NCI, 2004)
Where “and” joins values, the source holds several entries; their conditions need not be identical. Equal entries are not always repeated. Inconclusive results and toxic doses are left out. No stated cut-off is given here; in the data, active means T/C of 150% or more; inactive means T/C below 125%.

Test system: L1210 leukemia ip in BDF1 mice, survival T/C
Test: NCI In Vivo Anticancer Drug Screen. Data for tumor model L1210 Leukemia (intraperitoneal) in B6D2F1 (BDF1) mice
Conditions: endpoint: mean survival time, higher = longer survival
In short: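 Transplantable tumor model; survival measured in treated vs vehicle control mice. Value = treated/control.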

[1] = dose: 100.0 mg/kg/injection, schedule: Q01DX009 (ip), vehicle: saline
[2] = dose: 100.0 mg/kg/injection, schedule: Q04DX003 (ip), vehicle: saline
[3] = dose: 200.0 mg/kg/injection, schedule: Q04DX003 (ip), vehicle: saline
[4] = dose: 400.0 mg/kg/injection, schedule: Q04DX003 (ip), vehicle: saline
[5] = dose: 100.0 mg/kg/injection, schedule: Q01DX009 (ip), vehicle: Klucel (hydroxypropylcellulose) (HPC)
[6] = dose: 200.0 mg/kg/injection, schedule: Q01DX009 (ip), vehicle: Klucel (hydroxypropylcellulose) (HPC)
[7] = dose: 400.0 mg/kg/injection, schedule: Q01DX009 (ip), vehicle: Klucel (hydroxypropylcellulose) (HPC)
[8] = dose: 100.0 mg/kg/injection, schedule: Q04DX002 (ip), vehicle: saline with Tween-80
[9] = dose: 100.0 mg/kg/injection, schedule: Q01DX009 (ip), vehicle: saline with Tween-80
[10] = dose: 200.0 mg/kg/injection, schedule: Q01DX009 (ip), vehicle: saline with Tween-80
[11] = dose: 400.0 mg/kg/injection, schedule: Q01DX009 (ip), vehicle: saline with Tween-80
[12] = dose: 100.0 mg/kg/injection, schedule: Q04DX002 (ip), vehicle: Klucel (hydroxypropylcellulose) (HPC)
[13] = dose: 200.0 mg/kg/injection, schedule: Q04DX002 (ip), vehicle: Klucel (hydroxypropylcellulose) (HPC)
[14] = dose: 100.0 mg/kg/injection, schedule: Q01DX001 (ip), vehicle: Klucel (hydroxypropylcellulose) (HPC)
[15] = dose: 200.0 mg/kg/injection, schedule: Q01DX001 (ip), vehicle: Klucel (hydroxypropylcellulose) (HPC)
[16] = dose: 400.0 mg/kg/injection, schedule: Q01DX001 (ip), vehicle: Klucel (hydroxypropylcellulose) (HPC)
[17] = dose: 100.0 mg/kg/injection, schedule: Q04DX003 (ip), vehicle: Klucel (hydroxypropylcellulose) (HPC)
[18] = dose: 200.0 mg/kg/injection, schedule: Q04DX003 (ip), vehicle: Klucel (hydroxypropylcellulose) (HPC)
[19] = dose: 400.0 mg/kg/injection, schedule: Q04DX003 (ip), vehicle: Klucel (hydroxypropylcellulose) (HPC)
[20] = dose: 100.0 mg/kg/injection, schedule: Q01DX009 (ip), vehicle: gum acacia
[21] = dose: 100.0 mg/kg/injection, schedule: Q04DX003 (ip), vehicle: gum acacia
[22] = dose: 200.0 mg/kg/injection, schedule: Q01DX009 (ip), vehicle: gum acacia
[23] = dose: 200.0 mg/kg/injection, schedule: Q04DX003 (ip), vehicle: gum acacia
[24] = dose: 400.0 mg/kg/injection, schedule: Q01DX009 (ip), vehicle: gum acacia
[25] = dose: 400.0 mg/kg/injection, schedule: Q04DX003 (ip), vehicle: gum acacia

Measured: T/C

O=C(O)c1ccc(=O)[nH]c1
inactive: [1] 95 % of control | [2] 107 % of control | dose: 200.0 mg/kg/injection, schedule: Q01DX009 (ip), vehicle: saline 96 % of control | [3] 109 % of control | dose: 400.0 mg/kg/injection, schedule: Q01DX009 (ip), vehicle: saline 95 % of control | [4] 104 % of control

CC(=O)NC1COC(O)C(O)C1O (stereo not drawn)
inactive: [2] 94 % of control | [3] 101 % of control | [4] 101 % of control

CCOC(=O)c1cc(=O)[nH]c2cc(N)ccc12
inactive: [5] 86 % of control | [6] 89 % of control | [7] 86 % of control

CCCC(CCC)(C(=O)OCCOCCCl)c1cccc2ccccc12
inactive: [8] 89 % of control | dose: 200.0 mg/kg/injection, schedule: Q04DX002 (ip), vehicle: saline with Tween-80 99 % of control | dose: 400.0 mg/kg/injection, schedule: Q04DX002 (ip), vehicle: saline with Tween-80 95 % of control

CC1(CC(O)(C(F)(F)F)C(F)(F)F)NC(=O)NC1=O (stereo not drawn)
inactive: [9] 97 % of control | dose: 100.0 mg/kg/injection, schedule: Q04DX003 (ip), vehicle: saline with Tween-80 93 % of control | [10] 99 % of control | dose: 200.0 mg/kg/injection, schedule: Q04DX003 (ip), vehicle: saline with Tween-80 96 % of control | [11] 99 % of control | dose: 400.0 mg/kg/injection, schedule: Q04DX003 (ip), vehicle: saline with Tween-80 91 % of control

Cc1ccc(-n2cccc2)cc1
inactive: dose: 50.0 mg/kg/injection, schedule: Q04DX002 (ip), vehicle: Klucel (hydroxypropylcellulose) (HPC) 90 % of control | [12] 93 % of control and 90 % of control | [13] 90 % of control | dose: 400.0 mg/kg/injection, schedule: Q04DX002 (ip), vehicle: Klucel (hydroxypropylcellulose) (HPC) 106 % of control

CC(C)(C)C1=CC(=O)C(Br)=C(N2C3C4CCC(C4)C32)C1=O (stereo not drawn)
inactive: [14] 110 % of control | [15] 96 % of control | [16] 94 % of control

CCN(CC)CCCC(C)Nc1ccnc2cc(Cl)ccc12 (stereo not drawn)
inactive: dose: 25.0 mg/kg/injection, schedule: Q01DX001 (ip), vehicle: saline 103 % of control | dose: 25.0 mg/kg/injection, schedule: Q01DX009 (ip), vehicle: saline 100 % of control | dose: 25.0 mg/kg/injection, schedule: Q04DX002 (ip), vehicle: saline 95 % of control | dose: 50.0 mg/kg/injection, schedule: Q01DX001 (ip), vehicle: saline 104 % of control | dose: 50.0 mg/kg/injection, schedule: Q01DX009 (ip), vehicle: saline 97 % of control and 98 % of control | dose: 50.0 mg/kg/injection, schedule: Q04DX002 (ip), vehicle: saline 95 % of control | dose: 50.0 mg/kg/injection, schedule: Q04DX003 (ip), vehicle: saline 105 % of control | dose: 100.0 mg/kg/injection, schedule: Q01DX001 (ip), vehicle: saline 118 % of control and 92 % of control | [1] 98 % of control | dose: 100.0 mg/kg/injection, schedule: Q04DX002 (ip), vehicle: saline 95 % of control | [2] 108 % of control

O=C1/C(=C2\CCCc3ccc(Cl)cc32)CCc2ccc(Cl)cc21
inactive: [9] 100 % of control | [10] 97 % of control | [11] 96 % of control

C/C(=N/N(C)C)c1ccc(C#N)cc1
inactive: [14] 112 % of control | [15] 113 % of control | [16] 105 % of control

CC(=O)CCNC1(c2ccccc2)CCCCC1
inactive: [14] 95 % of control | [15] 95 % of control

CC(=O)NC1CC2c3ccccc3C1([N+](=O)[O-])c1ccccc12 (stereo not drawn)
inactive: [5] 107 % of control | [17] 107 % of control | [2] 107 % of control | [6] 101 % of control | [18] 105 % of control | [3] 105 % of control | [7] 97 % of control | [19] 97 % of control | [4] 97 % of control

Cc1cc(CC#N)c(C)c([N+](=O)[O-])c1
inactive: dose: 25.0 mg/kg/injection, schedule: Q04DX003 (ip), vehicle: Klucel (hydroxypropylcellulose) (HPC) 96 % of control | dose: 50.0 mg/kg/injection, schedule: Q04DX003 (ip), vehicle: Klucel (hydroxypropylcellulose) (HPC) 89 % of control

C=CCc1cnc(SC)[nH]c1=O
inactive: [17] 102 % of control | [18] 97 % of control | [19] 93 % of control

CC(C)(C)c1cc(/C=C/C(=O)O)cc(C(C)(C)C)c1O
inactive: [14] 107 % of control | [15] 96 % of control | [16] 90 % of control

CC1(C)CN1P(=O)(Oc1ccc([N+](=O)[O-])cc1)N1CC1(C)C (stereo not drawn)
inactive: [12] 110 % of control | [13] 108 % of control

NC(=O)C1CCCC12NC(=O)NC2=O (stereo not drawn)
inactive: [5] 104 % of control | [17] 100 % of control | [6] 94 % of control | [18] 103 % of control | [7] 93 % of control | [19] 97 % of control

CCCCOP(=O)(OCCCC)N1CCCCC1
inactive: dose: 25.0 mg/kg/injection, schedule: Q04DX002 (ip), vehicle: saline with Tween-80 94 % of control | dose: 50.0 mg/kg/injection, schedule: Q04DX002 (ip), vehicle: saline with Tween-80 108 % of control | [8] 91 % of control

Oc1ccccc1C=NCCCN=Cc1ccccc1O
inactive: [20] 104 % of control | [21] 98 % of control | [22] 101 % of control | [23] 95 % of control | [24] 101 % of control | [25] 98 % of control

CC(C)N(C(=O)Nc1cccc2ccccc12)c1ccccc1
inactive: [20] 97 % of control | [21] 110 % of control | [22] 96 % of control | [23] 102 % of control | [24] 99 % of control | [25] 104 % of control

CN=C1N[N+]2=C(C)CCCC2(C)S1 (stereo not drawn)
inactive: [2] 101 % of control | [3] 89 % of control

CC(C)C(C=NCC(CCN(C)C)(c1ccc2ccccc2c1)C(C)C)(CCN(C)C)c1ccc2ccccc2c1 (stereo not drawn)
inactive: dose: 6.25 mg/kg/injection, schedule: Q04DX002 (ip), vehicle: saline + alcohol 87 % of control | dose: 12.5 mg/kg/injection, schedule: Q04DX002 (ip), vehicle: saline + alcohol 93 % of control | dose: 25.0 mg/kg/injection, schedule: Q04DX002 (ip), vehicle: saline + alcohol 93 % of control

c1ccc([Se+](c2ccccc2)c2ccccc2)cc1
inactive: dose: 0.22 mg/kg/injection, schedule: Q01DX009 (ip), vehicle: Klucel (hydroxypropylcellulose) (HPC) 98 % of control | dose: 0.39 mg/kg/injection, schedule: Q01DX009 (ip), vehicle: saline 94 % of control | dose: 0.45 mg/kg/injection, schedule: Q01DX009 (ip), vehicle: Klucel (hydroxypropylcellulose) (HPC) 110 % of control | dose: 0.78 mg/kg/injection, schedule: Q01DX009 (ip), vehicle: saline 97 % of control | dose: 1.56 mg/kg/injection, schedule: Q01DX009 (ip), vehicle: saline 87 % of control

NNc1ncnc2nncnc12
inactive: dose: 9.5 mg/kg/injection, schedule: Q01DX001 (ip), vehicle: other 98 % of control | dose: 19.0 mg/kg/injection, schedule: Q01DX001 (ip), vehicle: other 105 % of control | dose: 38.0 mg/kg/injection, schedule: Q01DX001 (ip), vehicle: other 104 % of control

CCCCSc1ncc(C)c(NC)n1
inactive: dose: 25.0 mg/kg/injection, schedule: Q01DX Z (ip), vehicle: methylcellulose (MC) 92 % of control | dose: 50.0 mg/kg/injection, schedule: Q01DX Z (ip), vehicle: methylcellulose (MC) 95 % of control

Cc1ccc(Nc2cc(=O)[nH]c(N)n2)cc1
inactive: dose: 100.0 mg/kg/injection, schedule: Q01DX Z (ip), vehicle: methylcellulose (MC) 94 % of control
